# Assay results taken from PMC10261046, “Mechanism of small molecule inhibition of Plasmodium falciparum myosin A informs antimalarial drug design” (Nature Communications, 2023).
# Tests used:
# PfMyoA triple mutant = biological target: T1, PfMyoA triple mutant (Plasmodium falciparum, UniProt Q8IDR3, F270Y/F471A/F645H); assay: basal ATPase assay (NADH-linked); type: biochemical
# T1 construct: gene MyoA; full length PfMyoA heavy chain triple mutant, co-expressed with light chains PfELC and PfMTIP; with PfELC and PfMTIP light chains
# [1] = biological target: T2, PfMyoA (Plasmodium falciparum myosin A) (Plasmodium falciparum, UniProt Q8IDR3); assay: X-ray crystal structure ([…] Å) and affinity measurement for nucleotide-free PfMyoA; also basal and actin-activated ATPase inhibition (IC50 […]); type: binding; design: gene MyoA; with PfELC and PfMTIP light chains
# Target sequence in this assay (Q8IDR3 whole entry): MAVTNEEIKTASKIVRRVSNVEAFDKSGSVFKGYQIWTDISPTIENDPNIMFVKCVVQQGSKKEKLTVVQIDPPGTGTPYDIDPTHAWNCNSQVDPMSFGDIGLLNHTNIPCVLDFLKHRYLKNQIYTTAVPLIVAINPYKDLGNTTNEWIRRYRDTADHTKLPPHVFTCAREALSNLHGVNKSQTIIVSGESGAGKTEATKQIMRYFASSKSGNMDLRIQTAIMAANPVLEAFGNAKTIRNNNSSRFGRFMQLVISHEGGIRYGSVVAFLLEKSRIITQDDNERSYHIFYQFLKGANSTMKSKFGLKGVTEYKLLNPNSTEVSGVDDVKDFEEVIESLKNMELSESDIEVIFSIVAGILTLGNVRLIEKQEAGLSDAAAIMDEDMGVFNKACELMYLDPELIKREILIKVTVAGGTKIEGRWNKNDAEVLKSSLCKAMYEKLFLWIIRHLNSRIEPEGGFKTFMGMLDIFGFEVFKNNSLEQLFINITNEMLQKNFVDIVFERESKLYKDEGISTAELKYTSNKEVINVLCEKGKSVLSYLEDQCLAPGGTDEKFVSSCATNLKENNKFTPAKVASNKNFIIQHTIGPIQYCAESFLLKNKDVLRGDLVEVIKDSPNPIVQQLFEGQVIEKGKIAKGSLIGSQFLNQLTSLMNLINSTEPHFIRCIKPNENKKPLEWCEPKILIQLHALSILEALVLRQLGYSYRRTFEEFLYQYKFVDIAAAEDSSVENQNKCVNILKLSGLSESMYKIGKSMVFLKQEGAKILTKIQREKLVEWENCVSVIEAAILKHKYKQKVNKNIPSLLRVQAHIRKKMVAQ
# Target sequence in this assay (Q8IJM4 entry or part of it, further chain): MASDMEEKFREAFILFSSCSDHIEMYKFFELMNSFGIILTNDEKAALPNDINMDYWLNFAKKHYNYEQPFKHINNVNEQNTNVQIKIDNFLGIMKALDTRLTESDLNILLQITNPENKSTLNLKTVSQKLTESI
# Target sequence in this assay (Q8I4W8 entry or part of it, further chain): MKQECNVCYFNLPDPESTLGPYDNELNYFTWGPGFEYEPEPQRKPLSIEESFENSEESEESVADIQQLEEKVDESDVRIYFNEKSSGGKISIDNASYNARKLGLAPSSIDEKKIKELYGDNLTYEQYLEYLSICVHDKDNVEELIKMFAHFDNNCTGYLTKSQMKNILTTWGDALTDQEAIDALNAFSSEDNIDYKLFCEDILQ
# [2] = biological target: T2, PfMyoA (Plasmodium falciparum myosin A); assay: X-ray crystal structure, […] Å; type: binding; design: gene MyoA; with PfELC and PfMTIP light chains
# Target sequence in this assay (Q8IDR3 whole entry): as the sequence (Q8IDR3 whole entry) above
# Target sequence in this assay (Q8I4W8 entry or part of it, further chain): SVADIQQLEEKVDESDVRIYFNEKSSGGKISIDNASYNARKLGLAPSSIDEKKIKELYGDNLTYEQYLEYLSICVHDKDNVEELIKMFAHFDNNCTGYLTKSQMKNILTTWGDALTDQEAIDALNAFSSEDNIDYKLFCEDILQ
# Target sequence in this assay (Q8IJM4 entry or part of it, further chain): as the sequence (Q8IJM4 entry or part of it, further chain) above
# [3] = biological target: T2, PfMyoA (Plasmodium falciparum myosin A); assay: X-ray crystal structure, […] Å; type: binding; design: gene MyoA; with PfELC and PfMTIP light chains; remark: listed apart in the source
# Target sequence in this assay (Q8IDR3 whole entry): as the sequence (Q8IDR3 whole entry) above
# Target sequence in this assay (Q8IJM4 entry or part of it, further chain): as the sequence (Q8IJM4 entry or part of it, further chain) above
# [4] = biological target: T2, PfMyoA (Plasmodium falciparum myosin A); assay: stopped-flow fluorescence transient kinetics; Kd printed in text is in the presence of […] KNX-002; type: binding; design: gene MyoA; full length PfMyoA heavy chain with light chains; with PfELC and PfMTIP light chains
# Target sequence in this assay (Q8IDR3 whole entry): as the sequence (Q8IDR3 whole entry) above
# Target sequence in this assay (Q8IJM4 entry or part of it, further chain): as the sequence (Q8IJM4 entry or part of it, further chain) above
# T1 sequence (Q8IDR3 whole entry, stated change not applied): as the sequence (Q8IDR3 whole entry) above
# T1 sequence (Q8IJM4 whole entry, stated change not applied, further chain): as the sequence (Q8IJM4 entry or part of it, further chain) above
molecule,measurement,setting,value
COc1ccc(C2(NCc3c[nH]nc3-c3cccs3)CC2)cc1 [KNX-002],IC50,PfMyoA triple mutant,52 µM
same,Kd,[1],8.6 µM
Nc1ncnc2c1ncn2[C@@H]1O[C@H](COP(=O)(O)OP(=O)(O)O)[C@@H](O)[C@H]1O [ADP],"X-ray crystal structure, 2.03 Å",[2],the substrate was hydrolyzed in PfMyoA/ATPγS/Apo leaving only Mg.ADP in the active site
Nc1ncnc2c1ncn2[C@@H]1O[C@H](CO[P@](=O)(O)O[P@](=O)(O)O[P@@](=O)(O)S)[C@@H](O)[C@H]1O [ATPγS],"X-ray crystal structure, 2.2 Å",[3],unhydrolyzed Mg.ATPyS occupies the active site of PfMyoA/ATPγS/KNX-002
mant-ADP,Kd,[4],3.5 µM
